Reference: patent US5962516A, “Immunosuppressive compounds and methods” (priority 1999, dated 1999)
Structures can show the parent of a compound that is named as a salt.

How the values were obtained:
[1] = test system: mixed lymphocyte reaction (spleen cells from female C57BL/6 mice, stimulated with Balb/C spleen cells); assay: Mixed lymphocyte reaction (MLR) assay; assay type: cell-based, mouse; conditions: 50% suppression of proliferation
Method: Inhibition of cell proliferation by the subject compounds was assayed in the mixed lymphocyte reaction (MLR) (Bradley, 1980; Mishell, 1980). Spleen cells from female C57BL/6 mice, the "responder" cells, were prepared and co-cultured alone or in the presence of varying concentrations of the test compounds, with irradiated spleen cells prepared from female Balb/C mice, the "stimulator" cells. Prior irradiation of the stimulator cells rendered them unable to proliferate. A sample of the responder cells was also irradiated for use as a control. The non-irradiated responder cells proliferate in the presence of the allogenic stimulator cells. After a 78-hour incubation, tritiated thymidine was added to the mixed cell cultures, and incorporation of the labeled nucleotide into DNA was measured as an index of cell proliferation.
In this study, the responder cells (R) were spleen cells from female C57BL16 mice, and the stimulator cells (S) were spleen cells from female Balb/C mice 6 to 8 weeks of age (Jackson, Bar Harbor, Me.). The spleens were aseptically removed from the mice and placed into 10 ml of cold HBSS in a sterile petri dish. The spleen was cut in half and gently pressed between the frosted ends of 2 sterile microslides. The cell suspension was then filtered through sterile nylon mesh (Nytex, Tetco #HD-3-85) into a 15 ml conical polypropylene centrifuge tube and centrifuged at 200×g for 10 minutes in a Beckman GPR tabletop centrifuge (GH-3.7 Rotor). Following an additional wash in HBSS, the spleen cells were resuspended in RPMI 1640 medium (Gibco) containing 50 uM 2-mercaptoethanol, 2 mM glutamine, 100 U/ml penicillin, 100 μg/ml streptomycin and 10% heat-inactivated fetal bovine serum.
The stimulator cells (S) and part of the responder cells (R) were diluted at 10×10^6 cells/ml and irradiated at 20 cGy with a Cesium Irradiator (Department of Radiation Oncology, Stanford University, California) to inhibit proliferation. The irradiated cells were washed once to remove any toxic free radicals and their products resulting from irradiation. The responder cells (R), irradiated stimulator cells (Sx) and irradiated responder cell (Rx) were all diluted to 4×10^6 cells/ml.
In the assay, 4×10^5 cells of R were cocultured with 4×10^5 cells of Sx in 200 μl of medium in round bottom 96 well tissue culture plates. Fifty micro-liters of test samples at various concentrations were added to the cells. The wells receiving no test samples would get the maximum proliferation. Several controls were used in the assay. The irradiated responder cells (Rx) were also added to the responder cells with and without the test samples. Rx or Sx alone were checked to make sure no proliferation occurred after irradiation. The spontaneous proliferation of R was also measured.
The culture plates were incubated at 37° C. in a 5% CO2 incubator for four days. The cells were labelled with 1 μCi of (^3 H)-thymidine (Amersham, 49 Ci/mmol) in 20 μl of medium for the last 18 hours. Cells were then harvested and counted. The results were reported as counts per minute (cpm) per well. Percent of suppression and IC50 (concentration of sample producing 50% suppression of proliferation) were used to indicate the suppressive activity of the sample. Sample cpm was calculated as (R+Sx+sample)cpm-(R+Rx+sample)cpm; control cpm was calculated as (R+Sx)cpm-(R+Rx)cpm. Percent suppression of MLR activity was calculated as (1-sample cpm/control cpm)×100. IC50 was determined from percent suppression to indicate the suppressive activity of the sample.

[2] = test system: IL-1β action on murine thymocytes; assay: Inhibition of IL-1 action (IL-1 assay): suppression of IL-1β + PHA stimulated murine thymocyte proliferation; assay type: cell-based, mouse (C3H/HeN); conditions: 50% suppression of proliferation, 72 h culture
Method: The ability of the above compounds to suppress the cell-proliferative effect of IL-1β in vitro (O'Gara, 1990) was examined as described in Example 11. Mouse thymocytes in culture were stimulated with IL-1β in the presence of phytohemagglutinin (PHA) and increasing concentrations of triptolide (control) and triptolide derivatives. The cells were cultured for 72 hours, and during the last 18 hours, incubated with tritiated thymidine. DNA synthesis was assessed by measuring incorporation of radiolabeled thymidine. The results expressed in terms of IC50 (concentration effective to cause 50% suppression of proliferation) are shown in Table 1.
C3H/HeN mouse thymocytes were prepared and the action of IL-1 together with PHA, which stimulate proliferation of thymocyte, was measured using standard techniques (O'Gara, 1990; Mishell, 1980). Three- to six-week old C3H/HeN male mice (Simonson Laboratory, Gilroy, Calif.) were sacrificed by CO2 inhalation. Thymi were removed, separated from adherent non-thymic tissue, homogenized in Hank's balanced salt solution (HBSS, Gibco) using a glass homogenizer, and centrifuged at 200×g for 10 minutes at 15° C. Following an additional wash in HBSS, the thymocytes were resuspended in RPMI 1640 medium containing 50 uM 2-mercaptoethanol, 2 mM glutamine, 1 mM sodium pyruvate, non-essential amino acids 100 U/ml penicillin, 100 μg/ml streptomycin, and 10% heat-inactivated fetal bovine serum.
Cells were cultured in round-bottom 96 well microtiter tissue culture plates, 6×10^5 cells per well, in a volume of 100 μl. Recombinant human IL-1β (R & D Systems #201-LB) together with Phytohemagglutinin P (PHA, Pharmacia) were added to the cells in volume of 25 μl per well to achieve a final concentration of 0.08 ng/ml and 10 μg/ml, respectively. Samples were dissolved in DMSO (10 mg/ml), then diluted in culture medium. Twenty five microliters of the test sample was added to each well to achieve the final compound concentrations for each experiment. Cells with PHA together with IL-1 served as controls. The total volume for each well was 150 μl.
Plates were incubated at 37° C. in a 5% CO2 incubator for 72 hours. Fifty microliters of culture medium containing 0.5 μCi (^3 H)-thymidine (Amersham, 49 Ci/mmol) was added to each well prior to the last 18 hours of incubation. Cells were then harvested and counted. The results were reported as counts per minute (cpm) per 6×10^5 cells.
The following formula was used to calculate the percent of suppression of IL-1 activity, and IC50 (concentration of sample yielding 50% suppression of proliferation) was used to indicate the suppressive activity of the sample.
% suppression of IL-1 activity=(1-sample cpm/(IL-1+PHA control

Structure (SMILES): CC(C)C12OC1C1OC13C1(C)CCC4=C(COC4=O)C1CC1OC13C2OC(=O)CCC(=O)O (stereo not shown) [YM-276, Triptolide Succinate Lysine Salt]
- MLR Assay IC50 [1]: 0.063 µg/mL
- IC50 ([1]; read-out: MLR Assay IC50): 104 nM
- IL-1 Assay IC50 [2]: 0.144 µg/mL
- IC50 ([2]; read-out: IL-1 Assay IC50): 238 nM
